Target: T1, human PF4 (Homo sapiens, UniProt P02776)
T1 construct: PF4 is a 70 amino acid, lysine-rich 7.8 kDa platelet-specific protein; made in house; host or cells: Escherichia coli BL21DE3 pLysS (pT7-7) and/or Drosophila S2 cells
T1 sequence (P02776 32-101): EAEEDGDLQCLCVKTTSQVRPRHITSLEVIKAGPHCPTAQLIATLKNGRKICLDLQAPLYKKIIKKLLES
Test: Inhibition of PF4 tetramer formation (BS3 cross-linking, SDS-PAGE)
Format: biochemical
Details: for inhibition at 10 µM: 10 μM inhibitor (column A); for inhibition at 5 µM: 5 μM inhibitor; for IC50: read-out: IC50 of PF4 tetramer formation inhibition
In short: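 Recombinant human wild-type PF4 (E. coli-expressed, heparin-purified), 10 μg/ml in PBS, incubated with compound 15 min at 37° C or 60 min at room temperature, then cross-linked with 0.2 mM BS3 for 30 min at room temperature. Reducing 12% SDS-PAGE; bands quantified as % tetramer, trimer, dimer, monomer versus compound-free control.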

[1] = 1 μM inhibitor, read-out: % inhibition of PF4 tetramer formation at single concentration of inhibitor
[2] = 3 μM inhibitor (column A), read-out: % inhibition of PF4 tetramer formation at single concentration of inhibitor
[3] = read-out: % inhibition of PF4 tetramer formation at single concentration of inhibitor

SMILES | inhibition at 1 µM [1] [%] | inhibition at 3 µM [2] [%] | inhibition at 10 µM [3] [%] | inhibition at 5 µM [3] [%] | IC50 [µM] | other results
CC(C)(C)OC(=O)NCCCC(=O)C1C(=O)c2ccc(Oc3ccc4c(c3)C(=O)C(C(=O)CCCNC(=O)OC(C)(C)C)C4=O)cc2C1=O (stereo not drawn) [Example 385, tert-butyl N-[4-(5-{[2-(4-{[(tert-butoxy)carbonyl]amino}butanoyl)-1,3-dioxo-2,3-dihydro-1H-inden-5-yl]oxy}-1,3-dioxo-2,3-dihydro-1H-inden-2-yl)-4-oxobutyl]carbamate] | 29 | 59 |  |  |  | 
CCCC(=O)C1C(=O)c2ccc(S(=O)(=O)c3ccc4c(c3)C(=O)C(C(=O)CCC)C4=O)cc2C1=O (stereo not drawn) [Example 322, 2-butanoyl-5-[(2-butanoyl-1,3-dioxo-2,3-dihydro-1H-inden-5-yl)sulfonyl]-2,3-dihydro-1H-indene-1,3-dione] |  |  | 40 |  |  | 
O=C(c1ccc2c(c1)C(=O)C(C(=O)Nc1ccc(I)cc1)C2=O)c1ccc2c(c1)C(=O)C(C(=O)Nc1ccc(I)cc1)C2=O (stereo not drawn) [Example 105, N-(4-iodophenyl)-5-{2-[(4-iodophenyl)carbamoyl]-1,3-dioxo-2,3-dihydro-1H-indene-5-carbonyl}-1,3-dioxo-2,3-dihydro-1H-indene-2-carboxamide] |  |  |  |  | 2.8 | 
CC(=O)NCC(=O)C1C(=O)c2ccc(C(=O)c3ccc4c(c3)C(=O)C(C(=O)CNC(C)=O)C4=O)cc2C1=O (stereo not drawn) [Example 181, N-(2-{5-[2-(2-acetamidoacetyl)-1,3-dioxo-2,3-dihydro-1H-indene-5-carbonyl]-1,3-dioxo-2,3-dihydro-1H-inden-2-yl}-2-oxoethyl)acetamide] |  |  | 96 | 86 | 1.6 | 
O=C(c1ccc2c(c1)C(=O)C(C(=O)NCCOCC(F)(F)F)C2=O)c1ccc2c(c1)C(=O)C(C(=O)NCCOCC(F)(F)F)C2=O (stereo not drawn) [Example 67, 5,5′-carbonylbis(1,3-dioxo-n-(2-(2,2,2-trifluoroethoxy)ethyl)-2,3-dihydro-1h-indene-2-carboxamide)] |  |  | 20 | 0 |  | 
O=C(Nc1ccc(Cl)cc1)C1C(=O)c2ccc(S(=O)(=O)c3ccc4c(c3)C(=O)C(C(=O)Nc3ccc(Cl)cc3)C4=O)cc2C1=O (stereo not drawn) [Example 87, N-(4-chlorophenyl)-5-({2-[(4-chlorophenyl)carbamoyl]-1,3-dioxo-2,3-dihydro-1H-inden-5-yl}sulfonyl)-1,3-dioxo-2,3-dihydro-1H-indene-2-carboxamide] |  |  |  |  | 2.5 | 
O=C(c1ccc2c(c1)C(=O)C(C(=O)Nc1ccccc1)C2=O)c1ccc2c(c1)C(=O)C(C(=O)Nc1ccccc1)C2=O (stereo not drawn) [Example 14, 5,5′-carbonylbis(1,3-dioxo-indan-2-carboxylic acid phenylamide)] |  |  |  |  | 1 | inhibition at 30 µM (30 μM inhibitor, read-out: % inhibition of PF4 tetramer formation at single concentration of inhibitor): 96%
O=C(CCC(=O)C1C(=O)c2ccc(Oc3ccc4c(c3)C(=O)C(C(=O)CCC(=O)c3cccc(Cl)c3Cl)C4=O)cc2C1=O)c1cccc(Cl)c1Cl (stereo not drawn) [Example 258, 2-[4-(2,3-dichlorophenyl)-4-oxobutanoyl]-5-({2-[4-(2,3-dichlorophenyl)-4-oxobutanoyl]-1,3-dioxo-2,3-dihydro-1H-inden-5-yl}oxy)-2,3-dihydro-1H-indene-1,3-dione] | 18 | 33 |  |  |  | 
O=C(c1ccc2c(c1)C(=O)C(C(=O)COc1ccccc1)C2=O)c1ccc2c(c1)C(=O)C(C(=O)COc1ccccc1)C2=O (stereo not drawn) [Example 143, 5,5-[1,3-dioxo-2-(2-phenoxyacetyl)-2,3-dihydro-1H-indene-5-carbonyl]-2-(2-phenoxyacetyl)-2,3-dihydro-1H-indene-1,3-dione] |  |  |  |  | 7 | 
O=C(NC1CC1)C1C(=O)c2ccc(-c3ccc4c(c3)C(=O)C(C(=O)NC3CC3)C4=O)cc2C1=O (stereo not drawn) [Example 110, (2Z,2′Z)-2,2′-bis[(cyclopropylamino)(hydroxyl)methylidene]-1H,1′H,2H,2′H,3H,3′H-[5,5′-biindene]-1,1′,3,3′-tetrone] |  |  | 87 | 84 | ~4 | 
COc1cc(CCNC(=O)C2C(=O)c3ccc(C(=O)c4ccc5c(c4)C(=O)C(C(=O)NCCc4cc(OC)cc(OC)c4)C5=O)cc3C2=O)cc(OC)c1 (stereo not drawn) [Example 100, N-[2-(3,5-dimethoxyphenyl)ethyl]-5-(2-{[2-(3,5-dimethoxyphenyl)ethyl]carbamoyl}-1,3-dioxo-2,3-dihydro-1H-indene-5-carbonyl)-1,3-dioxo-2,3-dihydro-1H-indene-2-carboxamide] |  |  |  |  | ~13 | 
CSCCC(=O)C1C(=O)c2ccc(S(=O)(=O)c3ccc4c(c3)C(=O)C(C(=O)CCSC)C4=O)cc2C1=O (stereo not drawn) [Example 278, 2-[3-(methylsulfanyl)propanoyl]-5-({2-[3-(methylsulfanyl)propanoyl]-1,3-dioxo-2,3-dihydro-1H-inden-5-yl}sulfonyl)-2,3-dihydro-1H-indene-1,3-dione] | 1 | 18 |  |  | 3 | 
COCCNC(=O)C1C(=O)c2ccc(C(=O)c3ccc4c(c3)C(=O)C(C(=O)NCCOC)C4=O)cc2C1=O (stereo not drawn) [Example 74, 5,5′-carbonylbis(n-(2-methoxyethyl)-1,3-dioxo-2,3-dihydro-1h-indene-2-carboxamide)] |  |  | 46 | 19 |  | 
C[C@H](NC(=O)OC(C)(C)C)C(=O)C1C(=O)c2ccc(C(=O)c3ccc4c(c3)C(=O)C(C(=O)[C@H](C)NC(=O)OC(C)(C)C)C4=O)cc2C1=O (stereo partly drawn) [Example 179, tert-butyl N-[(2S)-1-(5-{2-[(2S)-2-{[(tert-butoxy)carbonyl]amino}propanoyl]-1,3-dioxo-2,3-dihydro-1H-indene-5-carbonyl}-1,3-dioxo-2,3-dihydro-1H-inden-2-yl)-1-oxopropan-2-yl]carbamate] |  |  | 92 | 81 | ~6 | 
C[C@H](NC(=O)OC(C)(C)C)C(=O)C1C(=O)c2ccc(S(=O)(=O)c3ccc4c(c3)C(=O)C(C(=O)[C@H](C)NC(=O)OC(C)(C)C)C4=O)cc2C1=O (stereo partly drawn) [Example 180, tert-butyl N-[(2S)-1-[5-({2-[(2S)-2-{[(tert-butoxy)carbonyl]amino}propanoyl]-1,3-dioxo-2,3-dihydro-1H-inden-5-yl}sulfonyl)-1,3-dioxo-2,3-dihydro-1H-inden-2-yl]-1-oxopropan-2-yl]carbamate] |  |  | 90 | 73 | ~6 | 

Second part, led by results:

inhibition at 1 µM [1] [%] | inhibition at 3 µM [2] [%] | inhibition at 10 µM [3] [%] | inhibition at 5 µM [3] [%] | IC50 [µM] | SMILES | other results
 | 25 |  |  |  | CN1CCC(C(=O)C2C(=O)c3ccc(C(=O)c4ccc5c(c4)C(=O)C(C(=O)C4CCN(C)CC4)C5=O)cc3C2=O)CC1 (stereo not drawn) [Example 266, 2-(1-methylpiperidine-4-carbonyl)-5-[2-(1-methylpiperidine-4-carbonyl)-1,3-dioxo-2,3-dihydro-1H-indene-5-carbonyl]-2,3-dihydro-1H-indene-1,3-dione] | 
13 | 50 |  |  |  | O=C(O)CCNC(=O)C1C(=O)c2ccc(Oc3ccc4c(c3)C(=O)C(C(=O)NCCC(=O)O)C4=O)cc2C1=O (stereo not drawn) [Example 305, 3-{[5-({2-[(2-carboxyethyl)carbamoyl]-1,3-dioxo-2,3-dihydro-1H-inden-5-yl}oxy)-1,3-dioxo-2,3-dihydro-1H-inden-2-yl]formamido}propanoic acid] | 
 |  | 94 | 89 | 4.4 | CC(C)(C)CC(=O)NCC(=O)C1C(=O)c2ccc(C(=O)c3ccc4c(c3)C(=O)C(C(=O)CNC(=O)CC(C)(C)C)C4=O)cc2C1=O (stereo not drawn) [Example 185, N-[2-(5-{2-[2-(3,3-dimethylbutanamido)acetyl]-1,3-dioxo-2,3-dihydro-1H-indene-5-carbonyl}-1,3-dioxo-2,3-dihydro-1H-inden-2-yl)-2-oxoethyl]-3,3-dimethylbutanamide] | 
20 | 20 |  |  |  | O=C(c1ccc2c(c1)C(=O)C(C(=O)CCC(=O)c1cccc(Cl)c1Cl)C2=O)c1ccc2c(c1)C(=O)C(C(=O)CCC(=O)c1cccc(Cl)c1Cl)C2=O (stereo not drawn) [Example 253, 2-[4-(2,3-dichlorophenyl)-4-oxobutanoyl]-5-{2-[4-(2,3-dichlorophenyl)-4-oxobutanoyl]-1,3-dioxo-2,3-dihydro-1H-indene-5-carbonyl}-2,3-dihydro-1H-indene-1,3-dione] | 
 |  |  |  | 3 | CC(=O)NCC(=O)C1C(=O)c2ccc(Oc3ccc4c(c3)C(=O)C(C(=O)CNC(C)=O)C4=O)cc2C1=O (stereo not drawn) [Example 246, N-[2-(5-{[2-(2-acetamidoacetyl)-1,3-dioxo-2,3-dihydro-1H-inden-5-yl]oxy}-1,3-dioxo-2,3-dihydro-1H-inden-2-yl)-2-oxoethyl]acetamide] | % inhibition of PF4 tetramer formation at single concentration of inhibitor (1 μM inhibitor, 1 µM): 12%; % inhibition of PF4 tetramer formation at single concentration of inhibitor (3 μM inhibitor (column A), 3 µM): 30%
31 | 67 |  |  |  | C[C@H](NC(=O)C1C(=O)c2ccc(Oc3ccc4c(c3)C(=O)C(C(=O)N[C@@H](C)C(=O)O)C4=O)cc2C1=O)C(=O)O (stereo partly drawn) [Example 313, (2S)-2-({5-[(2-{[(1S)-1-carboxyethyl]carbamoyl}-1,3-dioxo-2,3-dihydro-1H-inden-5-yl)oxy]-1,3-dioxo-2,3-dihydro-1H-inden-2-yl}formamido) propanoic acid] | 
5 | 13 |  |  |  | CC[C@H](C)[C@H](NC(=O)C1C(=O)c2ccc(C(=O)c3ccc4c(c3)C(=O)C(C(=O)N[C@H](C(=O)OC)[C@@H](C)CC)C4=O)cc2C1=O)C(=O)OC (stereo partly drawn) [Example 332, methyl (2S,3S)-2-{[5-(2-{[(2S,3S)-1-methoxy-3-methyl-1-oxopentan-2-yl]carbamoyl}-1,3-dioxo-2,3-dihydro-1H-indene-5-carbonyl)-1,3-dioxo-2,3-dihydro-1H-inden-2-yl]formamido}-3-methylpentanoate] | 

From patent US20250281424A1 (New York Blood Center, Inc, priority 2020, published 2025)
